Data published in ChEMBL document CHEMBL1142734, “Biological properties of D- and L-1-deoxyazasugars” (J Med Chem, 2005).

Key:
[1] = target: T1, Beta-mannosidase (Homo sapiens) (UniProt O00462); experiment: Percent inhibition of human beta-mannosidase at 1000 uM
T1 sequence (whole entry): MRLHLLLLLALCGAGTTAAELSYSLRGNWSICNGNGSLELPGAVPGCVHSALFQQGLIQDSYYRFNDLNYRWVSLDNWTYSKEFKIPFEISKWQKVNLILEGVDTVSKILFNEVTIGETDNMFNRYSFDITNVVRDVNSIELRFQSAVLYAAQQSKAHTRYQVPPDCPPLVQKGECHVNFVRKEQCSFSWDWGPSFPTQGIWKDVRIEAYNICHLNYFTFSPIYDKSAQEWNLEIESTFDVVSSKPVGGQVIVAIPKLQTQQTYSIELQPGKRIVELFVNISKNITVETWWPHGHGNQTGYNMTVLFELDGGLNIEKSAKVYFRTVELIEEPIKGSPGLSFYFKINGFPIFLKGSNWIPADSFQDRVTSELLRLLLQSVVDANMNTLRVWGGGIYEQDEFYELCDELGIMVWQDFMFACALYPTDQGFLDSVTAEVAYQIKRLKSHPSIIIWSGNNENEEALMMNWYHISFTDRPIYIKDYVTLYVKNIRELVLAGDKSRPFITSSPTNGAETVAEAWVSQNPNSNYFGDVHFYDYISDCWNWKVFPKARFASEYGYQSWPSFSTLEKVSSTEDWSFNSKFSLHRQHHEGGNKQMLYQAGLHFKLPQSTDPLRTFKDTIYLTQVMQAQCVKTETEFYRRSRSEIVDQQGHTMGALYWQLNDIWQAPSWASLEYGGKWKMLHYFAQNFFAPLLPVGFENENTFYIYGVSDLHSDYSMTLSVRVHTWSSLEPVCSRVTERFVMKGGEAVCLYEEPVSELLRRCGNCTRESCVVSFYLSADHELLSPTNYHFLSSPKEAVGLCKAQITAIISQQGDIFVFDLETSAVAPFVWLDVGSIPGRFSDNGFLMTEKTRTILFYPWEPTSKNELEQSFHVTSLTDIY

[2] = target: T2, Tissue alpha-L-fucosidase (Homo sapiens) (UniProt P04066); details: 1000 uM
T2 sequence (whole entry): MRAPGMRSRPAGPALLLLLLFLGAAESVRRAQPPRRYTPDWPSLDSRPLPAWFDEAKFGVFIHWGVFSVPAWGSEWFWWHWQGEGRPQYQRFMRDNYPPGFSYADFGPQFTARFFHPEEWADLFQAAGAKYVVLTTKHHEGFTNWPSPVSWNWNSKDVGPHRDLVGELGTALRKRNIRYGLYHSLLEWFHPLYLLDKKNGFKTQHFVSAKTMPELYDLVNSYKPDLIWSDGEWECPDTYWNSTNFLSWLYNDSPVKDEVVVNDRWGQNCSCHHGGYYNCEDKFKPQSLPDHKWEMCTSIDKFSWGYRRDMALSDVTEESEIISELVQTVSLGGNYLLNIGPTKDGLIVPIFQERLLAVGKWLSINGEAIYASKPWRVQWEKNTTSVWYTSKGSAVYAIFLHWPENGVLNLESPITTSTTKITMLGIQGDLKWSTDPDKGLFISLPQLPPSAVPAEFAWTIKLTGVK

[3] = target: T3, Alpha-galactosidase A (Homo sapiens) (UniProt P06280); details: 1000 uM
T3 sequence (whole entry): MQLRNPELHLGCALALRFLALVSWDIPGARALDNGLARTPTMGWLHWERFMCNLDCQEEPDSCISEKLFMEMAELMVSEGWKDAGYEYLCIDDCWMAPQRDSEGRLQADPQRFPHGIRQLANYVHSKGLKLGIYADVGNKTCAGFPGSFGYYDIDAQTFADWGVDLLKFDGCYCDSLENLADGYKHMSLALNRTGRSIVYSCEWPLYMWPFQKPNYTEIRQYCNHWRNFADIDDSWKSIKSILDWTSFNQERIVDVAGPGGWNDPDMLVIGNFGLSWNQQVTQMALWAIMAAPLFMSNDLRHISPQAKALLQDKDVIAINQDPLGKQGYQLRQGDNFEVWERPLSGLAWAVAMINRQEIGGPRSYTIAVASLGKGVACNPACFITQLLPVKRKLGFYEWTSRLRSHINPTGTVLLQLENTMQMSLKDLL

[4] = target: T4, Tissue alpha-L-fucosidase (Bos taurus) (UniProt Q2KIM0); details: 1000 uM
T4 sequence (whole entry): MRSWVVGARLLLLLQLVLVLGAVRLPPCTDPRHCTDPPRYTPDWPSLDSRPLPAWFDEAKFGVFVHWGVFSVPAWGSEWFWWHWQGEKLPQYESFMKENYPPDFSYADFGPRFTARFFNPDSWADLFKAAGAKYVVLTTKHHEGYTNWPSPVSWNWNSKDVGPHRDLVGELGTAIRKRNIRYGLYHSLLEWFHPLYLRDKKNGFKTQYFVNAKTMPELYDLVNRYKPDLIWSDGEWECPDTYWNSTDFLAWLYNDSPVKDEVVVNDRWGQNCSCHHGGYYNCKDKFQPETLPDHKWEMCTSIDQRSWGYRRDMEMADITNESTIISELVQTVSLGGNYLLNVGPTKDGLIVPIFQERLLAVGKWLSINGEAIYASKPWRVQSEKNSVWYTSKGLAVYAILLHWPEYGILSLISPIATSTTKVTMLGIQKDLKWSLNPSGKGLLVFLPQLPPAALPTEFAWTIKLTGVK

[5] = target: T5, Beta-galactosidase (Rattus norvegicus) (UniProt D3ZUM4); experiment: Percent inhibition of beta-galactosidase of rat epididymis at 1000 uM
T5 sequence (whole entry): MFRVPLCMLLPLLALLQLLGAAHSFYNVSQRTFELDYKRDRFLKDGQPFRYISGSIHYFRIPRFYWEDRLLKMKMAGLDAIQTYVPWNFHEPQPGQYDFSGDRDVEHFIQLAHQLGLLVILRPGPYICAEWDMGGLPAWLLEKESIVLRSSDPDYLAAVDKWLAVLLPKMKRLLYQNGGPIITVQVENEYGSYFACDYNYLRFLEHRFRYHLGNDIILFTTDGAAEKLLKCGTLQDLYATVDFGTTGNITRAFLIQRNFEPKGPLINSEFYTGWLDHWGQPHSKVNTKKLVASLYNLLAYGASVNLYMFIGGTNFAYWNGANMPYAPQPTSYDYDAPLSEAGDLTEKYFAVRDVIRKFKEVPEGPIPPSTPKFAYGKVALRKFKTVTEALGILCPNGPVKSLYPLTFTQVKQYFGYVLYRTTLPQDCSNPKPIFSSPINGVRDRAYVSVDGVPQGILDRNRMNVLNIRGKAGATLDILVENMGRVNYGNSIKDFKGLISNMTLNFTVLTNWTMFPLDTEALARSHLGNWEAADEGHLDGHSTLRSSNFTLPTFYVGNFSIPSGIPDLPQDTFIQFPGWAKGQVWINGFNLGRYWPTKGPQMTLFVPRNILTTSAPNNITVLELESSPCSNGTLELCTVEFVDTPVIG

Structure (SMILES) | inhibition [1] [%] | inhibition [2] [%] | inhibition [3] [%] | inhibition [4] [%] | inhibition [5] [%]
OC[C@@H]1NC[C@@H](O)[C@H](O)[C@H]1O | < 50 | < 50 | < 50 | < 50 | –
OC[C@@H]1NC[C@H](O)[C@@H](O)[C@@H]1O | < 50 | < 50 | < 50 | < 50 | < 50
OC[C@H]1NC[C@H](O)[C@@H](O)[C@@H]1O [DUVOGLUSTAT] | < 50 | < 50 | < 50 | – | –
OC[C@@H]1NC[C@@H](O)[C@@H](O)[C@@H]1O | < 50 | – | < 50 | – | < 50
OC[C@H]1NC[C@@H](O)[C@H](O)[C@H]1O | < 50 | < 50 | – | < 50 | < 50
OC[C@H]1NC[C@H](O)[C@H](O)[C@@H]1O | < 50 | – | < 50 | < 50 | < 50
OC[C@H]1NC[C@H](O)[C@H](O)[C@H]1O | < 50 | < 50 | – | < 50 | < 50
OC[C@H]1NC[C@@H](O)[C@@H](O)[C@@H]1O [DEOXYMANNOJIRIMYCIN] | < 50 | – | < 50 | – | < 50

The next lines start with the values.

inhibition [1] [%] | inhibition [2] [%] | inhibition [3] [%] | inhibition [4] [%] | inhibition [5] [%] | Structure (SMILES)
< 50 | < 50 | < 50 | < 50 | < 50 | OC[C@@H]1NC[C@H](O)[C@H](O)[C@H]1O
< 50 | < 50 | < 50 | < 50 | < 50 | OC[C@@H]1NC[C@@H](O)[C@@H](O)[C@H]1O
< 50 | < 50 | – | < 50 | – | OC[C@H]1NC[C@H](O)[C@@H](O)[C@H]1O
< 50 | – | – | – | – | OC[C@@H]1NC[C@@H](O)[C@H](O)[C@@H]1O
